Values quoted from earlier work, collected in patent US20070292523A1, “Dihydropyrimidine Formulations” (priority 2004, published 2007).
One block for each compound: values may come before it.

Assays:
[1] = test system: presystemic oxidative metabolism of nimodipine; conditions: nimodipine and valproic acid administered in combination (Drugs Aging, 1995, 6, 229-42)
cytochrome P450 = conditions: nimodipine with cimetidine (Drugs Aging, 1995, 6, 229-42)

SMILES: CCCC(CCC)C(=O)O [valproic acid]
- plasma concentrations of nimodipine [1]: increased plasma concentrations of nimodipine

SMILES: CN/C(=N/CCSCc1nc[nH]c1C)NC#N [cimetidine]
- bioavailability of nimodipine (cytochrome P450): approximate doubling of the bioavailability of nimodipine

- solubility in water: practically insoluble in water
SMILES: COCCOC(=O)C1=C(C)NC(C)=C(C(=O)OC(C)C)C1c1cccc([N+](=O)[O-])c1 (stereo not drawn) [nimodipine, Nimodipine]
